Where two headings read alike, the source gives them in different places.
Columns and labels:
Assay type in all cases: cell-based
[1] = system: human cytotoxic T-lymphocyte responses; assay: Inhibition of human CTL responses (mixed leukocyte-tumor cultures, HT-144 melanoma, ^51 Cr release); settings: donor I, 0.01% ethanol, effector to target 6:1
Procedure: Human cells for the tests described below were taken from four donors designated I, II, III, and IV in the tables below.
Stock solutions of Vitamin D derivatives were prepared as they were prepared above in the murine tests.
Human cytotoxic T-lymphocytes were generated in mixed leukocyte-tumor cultures by known methods. Specifically, blood from normal volunteer donors was drawn into heparinized syringes, diluted 1:1 with calcium-magnesium free Hanks' balanced salt solution (Ca-Mg free HBSS), and layered over lymphocyte separation medium (Litton Bionetics, Kensington, MD). After centrifugation at 500xg for 20-30 min at room temperature, peripheral blood mononuclear cells were harvested from the interface. The peripheral blood mononuclear leukocytes were centrifuged and resuspended in Ca-Mg free HBSS and were subsequently separated from platelets by centrifugation at 500xg through a solution of 20% sucrose and 1% human AB serum in Ca-Mg free HBSS. The cells were washed once and finally resuspended in tissue culture medium. […] Cells to be used as stimulator cells in mixed leukocyte-tumor cultures were irradiated with 10,000 rads of gamma irradiation to preclude proliferation in culture. Mixed leukocyte-tumor cell cultures were established in 16 mm tissue culture wells at a final volume of 1.5 ml per well containing 2×10^6 peripheral blood mononuclear leukocytes and 5×10^4 irradiation-inactivated stimulator cells. In order to prevent the generation of nonspecific cytotoxic cells in these cultures, hydrocortisone sodium succinate was added to each culture at a final concentration of 1×10^-5 M. Mixed leukocyte-tumor cultures were incubated for 6 days in a humidified atmosphere of 5% CO2 in air.
Labelled target cells were washed free of unbound isotope by 3 serial washes in tissue culture medium and were finally resuspended at a concentration of 5×10^4 cells per ml.
Assays of human cytotoxic T-lymphocytes were done by known methods. Specifically, one-tenth ml aliquots of ^51 Cr-labelled target cell suspension were added to "half area" microtest plates and were incubated at 37° C. for 18 hours in a humidified atmosphere of 5% CO2 in air to permit the cells to adhere and spread on the floor of each well. Culture medium was then aspirated from each well and was replaced with 0.1 ml of tissue culture medium containing cells harvested from mixed leukocyte-tumor cultures which had been processed as described for murine mixed leukocute cultures, above. Control wells for measurement of spontaneous ^51 Cr release received medium without effector cells and wells for measurement of maximal releasable ^51 Cr received 0.1 ml of 2% sodium dodecyl sulfate in distilled water. After overnight incubation at 37° in a humidified atmosphere of 5% CO2 in air, 0.05 ml of cell-free supernatant was withdrawn from each well and the amount of released ^51 Cr was quantitated using a gamma spectrometer. The percentage of specific ^51 Cr release (CTL activity) and the percent inhibition of CTL activity were calculated with the same formulas used above for the murine CTL assay.
Tests conducted on human cytotoxic T-lymphocyte responses are reported as the mean±standard error of the mean from triplicate ^51 Cr release determinations on pooled cells from duplicate control or test cultures.

[2] = system: IgM production by human lymphocytes; assay: Inhibition of IgM production by human lymphocytes in vitro (SAC activation, ELISA); settings: 8 days, vehicle control 2.49 ± 0.17
Text: (§1) General Test Description Humoral immunity comprises one of the two major arms of the immune system and generally is beneficial. However, a number of disease states are characterized by a hyperactive immune system responding to self tissue antigens. […] In these diseases it would be important to suppress the humoral immune system.
(§2) In the following studies we used established methods to examine the effect of Vitamin D derivatives on the in vitro production of immunoglobulin (Ig) by human peripheral blood leukocytes (PBL) following polyclonal activation. Immunoglobulin was induced from PBL by co-culturing the PBL with the polyclonal B cell activator Staphylococcus aureus strain Cowan I (SAC) for a period of 8 days. The quantity of Ig produced in the culture supernatants was determined by using an enzyme linked immunosorbent assay (ELISA). The effect of Vitamin D derivatives was determined by comparing the amount of antibody produced in cultures containing Vitamin D derivatives to those cultures containing an appropriate concentration of vehicle (ethanol).
(§3) Solutions of vitamin D derivatives. Stock solutions of vitamin D derivatives were prepared as described previously for the murine CTL experiments.
(§4) INDUCTION OF HUMAN IG SECRETION Human peripheral blood mononuclear leukocytes were prepared from one day old buffy coat preparations obtained from the American Red Cross (Lansing, MI). […] Twenty five ml of this preparation were overlayed onto 25 ml of Ficoll-Paque contained in a 50 ml polypropylene centrifuge tube. After centrifugation at 400×g at 15° C. for 40 min, the cells at the interface of the medium and Ficoll were removed and washed 3 times in 50 ml RPMI medium and centrifuged at 300×g for 10 minutes. After the final centrifugation,the cell pellet was suspended in RPMI medium containing 20% fetal bovine serum (FBS) and 80 μg/ml gentamicin. The number of viable cells was determined by trypan blue exclusion and were then suspended to 2.5×10^6 viable cells per ml in RPMI containing 20% FBS and gentamicin. Human PBL were induced to secrete Ig as follows. One hundred microliters of the PBL suspension and an additional 100 μl of a 1:20,000 (v/v) preparation of SAC suspended in RPMI containing 1% FBS were added to each well of a 96-well microtiter plate. Selected wells were also set up without the addition of SAC to serve as negative controls (spontaneous Ig secretion). Each well then received 20 μl of either the appropriate dilution of Vitamin D derivative in RPMI with 1% ethanol or RPMI with 1% ethanol (vehicle control). The vitamin D derivatives were tested at final concentrations of 10^-5, 10^-6, 10^-7, 10^-8, 10^-9, and 10^-10 M and in all cases the vehicle (ethanol) concentration was 0.1%. All treatments were performed in triplicate. […] The samples were then either assayed immediately or stored at -20° C. until assayed by the ELISA technique described below.
(§5) QUANTITATION OF SECRETED IG (ELISA ASSAY) ELISA plates were prepared for quantitating human IgG and IgM levels in culture supernatants as follows. Affinity purified sheep anti-human IgG and goat anti-human IgM (Cappel, Cochranville, PA) were diluted 1:250 and 1:400 respectively, in carbonate coating buffer (0.05M sodium bicarbonate, 0.05M sodium carbonate, 0.15M sodium chloride). One hundred and fifty microliters of the antibody preparation were added to each well of a 96 well ELISA plate (EIA, Costar). The plates were sealed and incubated overnight at 4° C. and on the following day were washed 3 times with distilled water. Each well then received 350 μl of Dulbecco's PBS containing 1 mg/ml bovine serum albumin (BSA) and 0.5 mg/ml sodium azide. The plates were allowed to incubate for 1 hour at 37° C. and then washed 3 times with Dulbecco's PBS containing 0.5% stock Tween 20 (PBS-Tween) followed by 2 washes with distilled water. The plates were air dried and stored desiccated under a vacuum at 4° C. until use.

[3] = system: IgG production by human lymphocytes; assay: Inhibition of IgG production by human lymphocytes in vitro (SAC activation, ELISA); settings: 8 days, vehicle control 0.78 ± 0.09
Text: as §1, §2, §3, §4, §5

## C=C1/C(=C/C=C2\CCC[C@]3(C)[C@@H]([C@H](C)CCCC(C)(C)O)CC[C@@H]23)C[C@@H](O)C[C@@H]1O [5,6-trans-1α,25-(OH)2 --D3, 1α,25-Dihydroxy-5,6-trans-cholecalciferol]
[1]; Homo sapiens, T-lymphocyte, read-out: Inhibition of CTL activity (%), Test 1, 1 × 10^-6 molar
  inhibition at 1 µM: 62%
[1]; Homo sapiens, T-lymphocyte, read-out: Inhibition of CTL activity (%), Test 1, 1 × 10^-7 molar
  inhibition at 0.1 µM: 62%
[1]; Homo sapiens, T-lymphocyte, read-out: Inhibition of CTL activity (%), Test 2, 1 × 10^-5 molar
  inhibition at 10 µM: 60%
[1]; Homo sapiens, T-lymphocyte, read-out: Inhibition of CTL activity (%), Test 2, 1 × 10^-6 molar
  inhibition at 1 µM: 74%
[1]; Test 1, 1 × 10^-6 molar
  CTL activity (% specific ^51 Cr release): 20 ± 2 % specific ^51 Cr release
[1]; Test 1, 1 × 10^-7 molar
  CTL activity (% specific ^51 Cr release): 20 ± 2 % specific ^51 Cr release
[1]; Test 2, 1 × 10^-5 molar
  CTL activity (% specific ^51 Cr release): 17 ± 3 % specific ^51 Cr release
[1]; Test 2, 1 × 10^-6 molar
  CTL activity (% specific ^51 Cr release): 11 ± 2 % specific ^51 Cr release
[2]; 1 × 10^-6 molar
  IgM μg per culture (x ± S.E.M.): undetectable
[2]; 1 × 10^-7 molar
  IgM μg per culture (x ± S.E.M.): 0.04 ± 0.01 μg per culture
[2]; 1 × 10^-8 molar
  IgM μg per culture (x ± S.E.M.): 0.50 ± 0.21 μg per culture
[2]; 1 × 10^-9 molar
  IgM μg per culture (x ± S.E.M.): 2.36 ± 0.27 μg per culture
[2]; 1 × 10^-10 molar
  IgM μg per culture (x ± S.E.M.): 2.79 ± 0.18 μg per culture
[3]; 1 × 10^-6 molar
  IgG μg per culture (x ± S.E.M.): undetectable
[3]; 1 × 10^-7 molar
  IgG μg per culture (x ± S.E.M.): 0.01 ± 0.001 μg per culture
[3]; 1 × 10^-8 molar
  IgG μg per culture (x ± S.E.M.): 0.21 ± 0.12 μg per culture
[3]; 1 × 10^-9 molar
  IgG μg per culture (x ± S.E.M.): 0.29 ± 0.05 μg per culture
[3]; 1 × 10^-10 molar
  IgG μg per culture (x ± S.E.M.): 0.55 ± 0.16 μg per culture

From patent publication US4749710A, “Immunosuppressive agents” (priority 1985, dated 1988)
